Values after ≈ are worked out from the molar mass of the structure shown.
Key:
[1] = tested on: M17-SYNwt cells; assay: α-synuclein cytotoxicity assay (LDH leakage from paraquat-treated α-synuclein over-expressing neuroblastoma cells); assay type: cell-based, human; conditions: paraquat 32 mM, 40 hours, LDH release; for EC50: Homo sapiens, Neuroblastoma cell; for EC50 / EC50 (µg/mL): 10 point curves in duplicate; for %I: percent inhibition of synuclein cytotoxicity at most effective concentration of test compound, relative to untreated paraquat cells
Method in brief: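 M17 neuroblastoma cells over-expressing wild-type α-synuclein were challenged with paraquat, and cytotoxicity was read as LDH release. Protection was expressed as percent reduction of paraquat-induced LDH release relative to untreated paraquat cells and control cells. Actives were retested in 10-point duplicate dose responses.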

[2] = tested on: dopaminergic substantia nigra neurons; assay: in vivo inhibition of paraquat-triggered loss of substantia nigra neurons (tyrosine hydroxylase immunohistochemistry); conditions: mice, paraquat intraperitoneal not higher than 8 mg/kg/day, compound not higher than 20 mg/kg body weight/day, 8 weeks treatment, versus vehicle
Protocol: In order to model neuronal loss in the substantia nigra region of the brain, mice were treated with paraquat (intraperitoneal) at a dose not higher than 8 mg/kg/day for a continuous period of 15-100 days. These mice were also chronically co-treated during that period with: • compound 60 (1-[4-methoxyphenylsulfonyl]-4-[3-(4-methylbenzyl)-1,2,4-thiadiazol-5-yl]-2-methylpiperazine), or • compound 32 (1-[4-methoxyphenylsulfonyl]-4-[3-(4-fluorobenzyl)-1,2,4-thiadiazol-5-yl]piperazine), or • compound 53 (1-[4-methoxyphenylsulfonyl]-4-[3-(3-methoxy-benzyl)-1,2,4-thiadiazol-5-yl]piperazine), each being administered at a dose not higher than 20 mg/kg body weight/day), or by vehicle only (no active compound). Mice treatment by means of vehicle or a compound of the invention started 2 days before administration of paraquat.
At the end of the treatment period, mice were sacrificed and the corresponding brains were used for immunohistochemical analysis. […] Using antibodies raised against tyrosin hydroxylase (anti-tyrosin hydroxylase), tyrosine hydroxylase containing neurons in the brains were detected.
Three groups of mice were treated with either paraquat and compound 53 (group 3; n=6), or paraquat and vehicle of compound 53 (group 2; n=4), or vehicle paraquat and vehicle of compound 53 (group 1; n=3). […] Per mouse, the median %TH-positive areas (of the substantia nigra regions) was determined. […]

| Compound | EC50 [1] | %I [1] | TH-positive area of the substantia nigra [2] | EC50 (µg/mL) [1] |
| --- | --- | --- | --- | --- |
| COc1ccc(S(=O)(=O)N2CCN(c3nc(Cc4cccc(OC)c4)ns3)CC2)cc1 [Compound 53, 1-[4-methoxyphenylsulfonyl]-4-[3-(3-methoxybenzyl)-1,2,4-thiadiazol-5-yl]piperazine] | 0.66 ng/mL (≈ 0.00143 µM) | 83% | protects dopaminergic substantia nigra neurons against paraquat-triggered degeneration |  |
| Cc1ccc(Cc2nsc(N3CCN(C(=O)c4ccc(C(C)(C)C)cc4)CC3)n2)cc1 [Compound 183, 1-(4-tert-butylbenzoyl)-4-[3-(4-methylbenzyl)-1,2,4-thiadiazol-5-yl]piperazine] |  | 52% |  |  |
| CC1CN(c2nc(Cc3ccc(F)cc3)ns2)CCN1C(=O)c1ccc([N+](=O)[O-])cc1 (stereo not shown) [Compound 184, 1-(4-nitrobenzoyl)-4-[3-(4-fluorobenzyl)-1,2,4-thiadiazol-5-yl]-2-methylpiperazine] |  | 52% |  |  |
| Cc1ccccc1N1CCN(c2nc(Cc3ccc(F)cc3)ns2)CC1 [Compound 185, 1-(2-methylphenyl)-4-[3-(4-fluorobenzyl)-1,2,4-thiadiazol-5-yl]piperazine] | 380 ng/mL (≈ 1.03 µM) | 114% |  |  |
| CCOc1ccccc1N1CCN(c2nc(Cc3ccc(F)cc3)ns2)CC1 [Compound 186, 1-(2-ethoxyphenyl)-4-[3-(4-fluorobenzyl)-1,2,4-thiadiazol-5-yl]piperazine] | 2050 ng/mL (≈ 5.14 µM) | 94% |  |  |
| Fc1ccc(Cc2nsc(N3CCN(c4ccccc4F)CC3)n2)cc1 [Compound 187, 1-(2-fluorophenyl)-4-[3-(4-fluorobenzyl)-1,2,4-thiadiazol-5-yl]piperazine] | 2810 ng/mL (≈ 7.54 µM) | 83% |  |  |
| Fc1ccc(Cc2nsc(N3CCN(c4cccc(C(F)(F)F)c4)CC3)n2)cc1 [Compound 188, 1-(3-trifluoromethylphenyl)-4-[3-(4-fluorobenzyl)-1,2,4-thiadiazol-5-yl]piperazine] |  | 96% |  |  |
| O=C(c1ccc(Cl)cc1)N1CCCN(c2nc(Cc3ccc(F)cc3)ns2)CC1 [Compound 189, 1-(4-chlorobenzoyl)-4-[3-(4-fluorobenzyl)-1,2,4-thiadiazol-5-yl]-1,4-diazepane] | 170 ng/mL (≈ 0.394 µM) | 85% |  |  |
| Cc1ccc(C(=O)N2CCCN(c3nc(Cc4ccc(F)cc4)ns3)CC2)cc1 [Compound 190, 1-(4-methylbenzoyl)-4-[3-(4-fluorobenzyt)-1,2,4-thiadiazol-5-yl]-1,4-diazepane] | 2770 ng/mL (≈ 6.75 µM) | 87% |  |  |
| O=C(c1ccc2c(c1)OCO2)N1CCCN(c2nc(Cc3ccc(F)cc3)ns2)CC1 [Compound 191, 1-(1,3-benzodioxol-5-ylcarbonyl)-4-[3-(4-fluorobenzyl)-1,2,4-thiadiazol-5-yl]-1,4-diazepane] |  | 63% |  |  |
| COc1ccc(S(=O)(=O)N2CCN(c3nc(Cc4cccc(F)c4)ns3)CC2)cc1 [Compound 193, 1-[4-methoxyphenylsulfonyl]-4-[3-(3-fluoro-benzyl)-1,2,4-thiadiazol-5-yl]piperazine] | 4.8 ng/mL (≈ 0.0107 µM) | 68% |  |  |
| COc1ccc(S(=O)(=O)N2CCN(c3nc(Cc4ccccc4F)ns3)CC2)cc1 [Compound 194, 1-[4-methoxyphenylsulfonyl]-4-[3-(2-fluoro-benzyl)-1,2,4-thiadiazol-5-yl]piperazine] | 1.2 ng/mL (≈ 0.00268 µM) | 102% |  |  |
| COc1ccccc1S(=O)(=O)N1CCN(c2nc(Cc3ccc(F)cc3)ns2)CC1 [Compound 195, 1-[2-methoxyphenylsulfonyl]-4-[3-(4-fluoro-benzyl)-1,2,4-thiadiazol-5-yl]piperazine] | 25 ng/mL (≈ 0.0557 µM) | 99% |  |  |
| CCOc1ccc(S(=O)(=O)N2CCN(c3nc(Cc4ccc(F)cc4)ns3)CC2)cc1 [Compound 196, 1-[4-ethoxyphenylsulfonyl]-4-[3-(4-fluoro-benzyl)-1,2,4-thiadiazol-5-yl]piperazine] | 8.1 ng/mL (≈ 0.0175 µM) | 42% |  |  |
| CCc1ccc(S(=O)(=O)N2CCN(c3nc(Cc4ccc(F)cc4)ns3)CC2)cc1 [Compound 197, 1-[4-ethylphenylsulfonyl]-4-[3-(4-fluoro-benzyl)-1,2,4-thiadiazol-5-yl]piperazine] | 239 ng/mL (≈ 0.535 µM) | 84% |  |  |
| O=S(=O)(c1ccccc1)N1CCN(c2nc(Cc3ccc(F)cc3)ns2)CC1 [Compound 198, 1-phenylsulfonyl-4-[3-(4-fluoro-benzyl)-1,2,4-thiadiazol-5-yl]piperazine] | 146 ng/mL (≈ 0.349 µM) | 25% |  |  |
| COc1ccc(S(=O)(=O)N2CCN(c3nc(Cc4ccccc4)ns3)CC2)cc1 [Compound 199, 1-[4-methoxyphenylsulfonyl]-4-[3-benzyl-1,2,4-thiadiazol-5-yl]piperazine] | 1.6 ng/mL (≈ 0.00372 µM) | 38% |  |  |
| CCC(=O)Oc1ccc(S(=O)(=O)N2CCN(c3nc(Cc4ccc(F)cc4)ns3)CC2)cc1 [Compound 200, 1-(4-propionyloxy)benzene-sulfonyl-4-[3-(4-fluoro-benzyl)-1,2,4-thiadiazol-5-yl]piperazine] | 51 ng/mL (≈ 0.104 µM) | 80% |  |  |
| COc1ccc(S(=O)(=O)N2CCN(c3nc(Cc4cccc(C)c4)ns3)CC2)cc1 [Compound 201] | 2.1 ng/mL (≈ 0.00472 µM) | 97% |  |  |
| COc1ccc(S(=O)(=O)N2CCN(c3nc(Cc4ccccc4C)ns3)CC2)cc1 [Compound 202] | 7.5 ng/mL (≈ 0.0169 µM) | 63% |  |  |
| COc1ccc(S(=O)(=O)N2CCN(c3nc(Cc4ccccc4OC)ns3)CC2)cc1 [Compound 203] | 6.2 ng/mL (≈ 0.0135 µM) | 61% |  |  |
| COc1ccc(S(=O)(=O)N2CCN(c3nc(Cc4ccc(F)c(C)c4)ns3)CC2)cc1 [Compound 204] | 1 ng/mL (≈ 0.00216 µM) | 90% |  |  |
| COc1ccc(Cc2nsc(N3CCN(S(=O)(=O)c4ccc(OC)cc4)CC3)n2)cc1 [Compound 205] | 1.1 ng/mL (≈ 0.00239 µM) | 53% |  |  |
| COc1cccc(Cc2nsc(N3CCN(S(=O)(=O)c4ccc(Br)cc4)CC3)n2)c1 [Compound 207] | 28 ng/mL (≈ 0.055 µM) | 83% |  |  |
| COc1ccc(S(=O)(=O)N2CCN(c3nc(Cc4cccc(OC)c4)ns3)CC2C)cc1 (stereo not shown) [Compound 208, 1-[4-methoxyphenylsulfonyl]-4-[3-(3-methoxybenzyl)-1,2,4-thia-diazol-5-yl]-2-methyl-piperazine] | 3.4 ng/mL (≈ 0.00716 µM) | 92% |  |  |
| O=S(=O)(c1ccc(O)cc1)N1CCN(c2nc(Cc3ccc(F)cc3)ns2)CC1 [Compound 217, 1-(4-hydroxybenzenesulfonyl)-4-[3-(4-fluoro-benzyl)-1,2,4-thiadiazol-5-yl]piperazine] |  | 77% |  |  |
| N-(2,6-dichlorophenyl)-4-[3-(4-fluorobenzyl)-1,2,4-thiadiazol-5-yl]-2-methylpiperazine-1-carboxamide [Compound 21] |  | 70% |  | 0,79 µg/mL |
| N-(3-cyanophenyl)-4-[3-(4-fluorobenzyl)-1,2,4-thiadiazol-5-yl]-2-methylpiperazine-1-carboxamide [Compound 22] |  | 59% |  | 0,88 µg/mL |
